For assay [1], the target named is T1, Egl nine homolog 1 (Homo sapiens, UniProt Q9GZT9). The assay is described as follows: Displacement of 2OG from catalytic domain of PHD2 (181 to 426) (unknown origin) Zn2 expressed in Escherichia coli at 400 uM.
Target sequence in this assay (Q9GZT9 2-426 limits assumed): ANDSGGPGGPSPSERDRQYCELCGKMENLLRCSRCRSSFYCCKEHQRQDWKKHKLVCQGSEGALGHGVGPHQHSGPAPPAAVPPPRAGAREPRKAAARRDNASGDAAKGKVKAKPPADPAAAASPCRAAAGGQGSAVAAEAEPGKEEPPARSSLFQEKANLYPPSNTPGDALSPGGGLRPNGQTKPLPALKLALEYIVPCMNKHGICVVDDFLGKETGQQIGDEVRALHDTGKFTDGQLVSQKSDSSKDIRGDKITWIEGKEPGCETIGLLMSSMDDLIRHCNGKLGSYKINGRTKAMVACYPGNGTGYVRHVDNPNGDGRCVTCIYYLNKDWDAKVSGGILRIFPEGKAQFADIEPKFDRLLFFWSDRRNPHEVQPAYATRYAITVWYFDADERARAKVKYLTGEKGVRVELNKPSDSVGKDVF
The target in assay [2] is T2, Lysine-specific demethylase 2A (Homo sapiens) (UniProt Q9Y2K7).
T2 sequence (whole entry): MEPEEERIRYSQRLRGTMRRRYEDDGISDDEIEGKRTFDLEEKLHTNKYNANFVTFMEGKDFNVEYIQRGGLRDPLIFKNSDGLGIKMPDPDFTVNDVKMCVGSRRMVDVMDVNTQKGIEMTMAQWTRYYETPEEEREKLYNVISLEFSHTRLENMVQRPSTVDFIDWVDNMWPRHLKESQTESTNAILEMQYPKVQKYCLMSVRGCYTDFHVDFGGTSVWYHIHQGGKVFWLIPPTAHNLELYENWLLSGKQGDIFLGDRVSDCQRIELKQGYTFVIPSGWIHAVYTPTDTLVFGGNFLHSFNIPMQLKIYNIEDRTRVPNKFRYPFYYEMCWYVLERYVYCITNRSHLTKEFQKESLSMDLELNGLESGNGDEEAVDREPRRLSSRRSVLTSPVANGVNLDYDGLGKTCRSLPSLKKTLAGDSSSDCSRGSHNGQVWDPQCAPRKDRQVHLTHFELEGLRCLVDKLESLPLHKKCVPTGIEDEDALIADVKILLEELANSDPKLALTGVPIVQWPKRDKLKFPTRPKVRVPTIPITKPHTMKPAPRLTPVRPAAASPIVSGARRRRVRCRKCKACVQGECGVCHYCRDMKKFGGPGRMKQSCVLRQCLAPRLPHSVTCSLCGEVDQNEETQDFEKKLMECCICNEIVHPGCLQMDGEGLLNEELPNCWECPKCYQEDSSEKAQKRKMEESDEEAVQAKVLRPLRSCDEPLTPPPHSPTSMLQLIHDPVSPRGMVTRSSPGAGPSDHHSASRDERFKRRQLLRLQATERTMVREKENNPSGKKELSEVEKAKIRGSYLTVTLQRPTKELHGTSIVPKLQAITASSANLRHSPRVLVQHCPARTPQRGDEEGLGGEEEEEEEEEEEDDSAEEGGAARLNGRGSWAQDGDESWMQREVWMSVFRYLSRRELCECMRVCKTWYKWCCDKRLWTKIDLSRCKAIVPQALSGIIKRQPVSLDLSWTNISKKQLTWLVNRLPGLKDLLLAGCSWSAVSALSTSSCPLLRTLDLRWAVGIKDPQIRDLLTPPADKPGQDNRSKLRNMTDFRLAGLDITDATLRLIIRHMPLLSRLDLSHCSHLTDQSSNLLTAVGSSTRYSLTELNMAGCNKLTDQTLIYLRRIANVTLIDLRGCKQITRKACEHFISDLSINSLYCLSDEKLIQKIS
The assay is described as follows: Displacement of 2OG from FBXL11 (1 to 517) (unknown origin) expressed in Escherichia coli at 800 uM.

The nature of assay [3]: Inhibition of human FIH catalytic domain Mn2 expressed in Escherichia coli by NMR spectroscopic analysis.
Assay [4] is described as follows: Binding affinity to human FIH catalytic domain Mn2 expressed in Escherichia coli by NMR spectroscopic analysis.
Assay [5] in a line: (§1) Displacement of 2OG from FIH (unknown origin) expressed in Escherichia coli at 400 uM. The note with it: Homo sapiens.
The target in assay [6] is T1, Egl nine homolog 1. The assay is described as follows: Displacement of 2OG from catalytic domain of PHD2 (181 to 426) (unknown origin) Zn2 expressed in Escherichia coli at 150 uM.
Target sequence in this assay (Q9GZT9 2-426 limits assumed): as the sequence (Q9GZT9 2-426 limits assumed) above
Assay [7] concerns the target T1, Egl nine homolog 1. The assay is described as follows: Displacement of [13C]-2OG from catalytic domain of PHD2 (181 to 426) (unknown origin) expressed in Escherichia coli.
Target sequence in this assay (Q9GZT9 whole entry, the tested form may be a part): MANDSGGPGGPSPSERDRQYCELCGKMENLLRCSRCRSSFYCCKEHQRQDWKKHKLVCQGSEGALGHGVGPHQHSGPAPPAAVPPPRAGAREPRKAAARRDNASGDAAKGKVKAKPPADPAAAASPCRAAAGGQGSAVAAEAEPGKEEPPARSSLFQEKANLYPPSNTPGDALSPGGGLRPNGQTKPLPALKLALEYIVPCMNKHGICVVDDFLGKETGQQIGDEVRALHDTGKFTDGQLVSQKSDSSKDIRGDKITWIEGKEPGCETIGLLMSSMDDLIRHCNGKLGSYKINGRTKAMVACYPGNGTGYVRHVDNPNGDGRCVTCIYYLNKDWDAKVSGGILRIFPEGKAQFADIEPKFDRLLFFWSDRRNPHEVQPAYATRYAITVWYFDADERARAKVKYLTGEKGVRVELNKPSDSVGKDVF
For assay [8], the target named is T1, Egl nine homolog 1. The assay is described as follows: Inhibition of human PHD2 catalytic domain (181 to 426) Mn2 expressed in Escherichia coli by NMR spectroscopic analysis.
Target sequence in this assay (Q9GZT9 whole entry, the tested form may be a part): as above
The target of assay [9] is T1, Egl nine homolog 1. The assay is described as follows: Binding affinity to human PHD2 catalytic domain (181 to 426) Mn2 expressed in Escherichia coli by NMR spectroscopic analysis.
Target sequence in this assay (Q9GZT9 whole entry, the tested form may be a part): as above
Assay [10] is filed under the species Homo sapiens. The description is as §1.
Assay [11] addresses T1, Egl nine homolog 1. The assay is described as follows: Inhibition of PHD2 (unknown origin).
Target sequence in this assay (Q9GZT9 whole entry, the tested form may be a part): as above

In general, inhibition refers to the share of the control response that was lost under treatment. For orientation: IC50 means the point on the concentration scale where inhibition reaches its midpoint. A lower IC50 goes with higher potency. Usually Kd stands for the equilibrium constant for the complex coming apart. A high value points to weaker binding.

Calls of active or inactive are those of the source. No cut-off for these calls is given here.

In assay [1], `O=C(O)CNC(=O)c1ccc(B(O)O)cn1` registered an inhibition of 50%. On to `O=C(O)CNC(=O)c1nc(Cl)c2ccccc2c1O`, for which, in assay [2], the inhibition result is “inactive”. Also, the IC50 in [3] was over 25 µM. The same molecule returned an equilibrium dissociation constant (Kd) in assay [4] of 140 µM. The molecule further displayed an inhibition in assay [5] of 55%. For the molecule `O=C(O)c1ccc(O)c(O)c1`, in assay [6], the inhibition entry was “inactive”. On to `O=C(O)Cc1cs/c(=N\C(=O)CS(=O)(=O)Cc2ccc3ccccc3c2)n1O`, for which, in assay [2], the inhibition is 90%. For the same molecule, the equilibrium dissociation constant (Kd) worked out at 0.11 µM in assay [7] and 0.1 µM in [9]. For the same molecule, in assay [8], the half-maximal inhibitory concentration (IC50) turned out to be 0.02 µM.

Turning to `O=C(O)CC(O)C(=O)O` (stereo unspecified), the inhibition result in assay [10] is “inactive”.

For the molecule `O=C(O)CCC(=O)O`, the inhibition entry in assay [10] was “inactive”. In turn, `O=C(O)CC(C(=O)O)C(O)C(=O)O` (stereo unspecified) [ISOCITRATE] yielded a half-inhibitory concentration (IC50) in [11] of over 10000 µM. Also, in [10], the inhibition result was “inactive”. Consider `O=C(c1ccccc1)c1ccc(O)c(O)c1`, for which the inhibition entry in assay [6] was “inactive”. On the same count and under the same terms, in the case of `CC(O)C(C)O` (stereo unspecified) it was “inactive”; in that of `O=C(O)/C=C/c1ccc(O)c(O)c1`, “inactive”. `O=C(O)c1ccc(O)c2ncccc12`: the inhibition in assay [2] is 65%; in assay [5] it was 75%. For the same molecule, it took 20 µM to reach half-maximal inhibition in assay [3] (IC50). In addition, in assay [4], the Kd stood at 30 µM.

As to `O=C(O)/C=C/C(=O)O` [FUMARIC ACID], in assay [8], the IC50 worked out at 220 µM. Also, the dissociation constant Kd in assay [9] was determined as 200 µM. With `Oc1ccccc1O`, the inhibition entry in assay [6] is “inactive”.

In the case of `O=C(O)CNC(=O)C(=O)O` [N-OXALYLGLYCINE], the inhibition stood at 30% in assay [2] and 85% in [5]. Also, in assay [3], the IC50 was found to be 50 µM. For the same molecule, the dissociation constant Kd in assay [4] is 4 µM. With `O=C(O)c1ccnc(C(=O)O)c1`, the inhibition in assay [2] worked out at 70%. Take `O=C(O)CC(O)(CC(=O)O)C(=O)O`: the inhibition result in assay [10] is “inactive”. With `CCOC(=O)c1ccc(O)c(O)c1`, the inhibition entry in assay [6] was “inactive”.

The values are drawn from ChEMBL document CHEMBL2311536 (J Med Chem, 2013).
